Data published in patent publication US11014905B2, “2,6-disubstituted pyridine derivative” (Sumitomo Dainippon Pharma Co., Ltd., priority 2017, dated 2021).

What was measured:
[1] = Test 3-1: metabolic stability test of human liver microsome; type: in vitro ADME; conditions: human liver microsome 0.1 mg/mL, test compound 0.1 μmol/L, 37° C., 30 minutes
Experimental: Test 3-1: Metabolic Stability Test of Human Liver Microsome
(§1) The stability of the present compounds for human liver microsome metabolism was evaluated as mentioned below. The used human liver microsome was obtained from Xenontech. Human liver microsome, NADPH, and each test compound were mixed in 25 mmol/L phosphate buffer solution (pH 7.4) to adjust each concentration as shown below, and the mixture was incubated at 37° C. for 30 minutes. • human liver microsome: 0.1 mg/mL • NAPDH: 3.2 mmol/L • test compound: 0.1 μmol/L
(§2) The residual ratio of the test compound in each sample after the incubation for 30 minutes was measured with a LC-MS, and the metabolic stability of human liver microsome was calculated about each test compound with the following formula. Metabolic stability of human liver microsome(mL/min/mg protein)=−LN(residual ratio)/“reaction time”/“concentration of human liver microsome”

human 5-HT1A receptor [2] = biological target: T1, human 5-HT1A receptor (Homo sapiens (Human), UniProt P08908); assay: Test 1: agonistic activity for human 5-HT1A receptor (aequorin luminescence, CHO-K1); type: cell-based; conditions: for EC50: CHO-K1 cell transiently expressing aequorin, Ga16 and receptor
T1 sequence (P08908 whole entry): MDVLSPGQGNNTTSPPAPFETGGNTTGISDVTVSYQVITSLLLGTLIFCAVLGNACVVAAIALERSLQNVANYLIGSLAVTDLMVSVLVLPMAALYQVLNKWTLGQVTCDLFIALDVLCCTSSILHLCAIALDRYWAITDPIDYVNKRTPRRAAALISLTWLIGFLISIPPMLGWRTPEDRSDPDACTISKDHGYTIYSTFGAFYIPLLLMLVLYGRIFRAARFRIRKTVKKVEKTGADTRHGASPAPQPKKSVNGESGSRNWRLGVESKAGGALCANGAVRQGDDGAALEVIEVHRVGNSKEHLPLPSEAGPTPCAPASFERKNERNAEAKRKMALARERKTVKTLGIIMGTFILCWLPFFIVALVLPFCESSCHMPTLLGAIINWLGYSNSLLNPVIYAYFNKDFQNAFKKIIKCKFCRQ
Experimental: (§3) Test 1: Evaluation of Agonistic Activity for Human 5-HT1A Receptor and Human D4 Receptor
(§4) Aequorin, Ga16 proteins, and each receptor were transiently expressed in CHO-K1 cell (Chinese hamster ovary), and seeded to 384-well plate. The plate was incubated in a CO2 incubator at 37° C. for 24 hours. Each example compound dissolved in DMSO was added thereto, and the change of luminescence amount was measured with Hamamatsu FDSS/μCELL System (Hamamatsu Photonics).

human D4 receptor [3] = biological target: T2, human D4 receptor (Homo sapiens (Human), UniProt P21917); assay: Test 1: agonistic activity for human D4 receptor (aequorin luminescence, CHO-K1); type: cell-based; conditions: for EC50: CHO-K1 cell transiently expressing aequorin, Ga16 and receptor
T2 sequence (P21917 whole entry): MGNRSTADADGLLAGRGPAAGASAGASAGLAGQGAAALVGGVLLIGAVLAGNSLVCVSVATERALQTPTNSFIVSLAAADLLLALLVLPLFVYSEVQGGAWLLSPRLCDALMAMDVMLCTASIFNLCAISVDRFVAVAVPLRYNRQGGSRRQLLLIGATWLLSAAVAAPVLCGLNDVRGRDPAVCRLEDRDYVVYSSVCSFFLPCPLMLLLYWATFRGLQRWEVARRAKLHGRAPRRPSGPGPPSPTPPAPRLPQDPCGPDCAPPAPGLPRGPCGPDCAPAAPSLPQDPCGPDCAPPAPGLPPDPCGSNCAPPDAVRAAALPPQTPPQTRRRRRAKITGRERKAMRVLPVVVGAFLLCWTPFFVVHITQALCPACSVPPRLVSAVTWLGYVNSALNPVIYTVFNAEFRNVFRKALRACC
Experimental: as §3, §4

human 5-HT1A receptor [4] = biological target: T1, human 5-HT1A receptor; assay: Test 2: binding activity to human 5-HT1A receptor ([3H] 8-OH-DPAT); conditions: CHO cell membrane fraction, read-out: 5-HT1A binding affinity (Ki value)
Experimental: (§5) Test 2: Evaluation of Binding Activity to Human 5-HT1A Receptor, Human D4 Receptor, and Human D2 Receptor
(§6) CHO cell membrane fraction in which human 5-HT1A receptor, human D4 receptor, and human D2 receptor were expressed was purchased from PerkinElmer Co., Ltd. In the evaluation test of binding, the test compound dissolved in DMSO, each receptor membrane preparation diluted with buffer solution, and [3H] […] The nonspecific binding to each receptor was evaluated by a competition binding experiment in the presence of 10 μmol/L 8-OH-DPAT, 10 μmol/L dopamine, or 10 μmol/L spiperone, respectively.

human D2 receptor = human D2 receptor (Homo sapiens (Human), UniProt P14416); assay: Test 2: binding activity to human D2 receptor ([3H] spiperone); conditions: CHO cell membrane fraction, read-out: D2 binding affinity (Ki value)
Sequence of human D2 receptor (P14416 whole entry): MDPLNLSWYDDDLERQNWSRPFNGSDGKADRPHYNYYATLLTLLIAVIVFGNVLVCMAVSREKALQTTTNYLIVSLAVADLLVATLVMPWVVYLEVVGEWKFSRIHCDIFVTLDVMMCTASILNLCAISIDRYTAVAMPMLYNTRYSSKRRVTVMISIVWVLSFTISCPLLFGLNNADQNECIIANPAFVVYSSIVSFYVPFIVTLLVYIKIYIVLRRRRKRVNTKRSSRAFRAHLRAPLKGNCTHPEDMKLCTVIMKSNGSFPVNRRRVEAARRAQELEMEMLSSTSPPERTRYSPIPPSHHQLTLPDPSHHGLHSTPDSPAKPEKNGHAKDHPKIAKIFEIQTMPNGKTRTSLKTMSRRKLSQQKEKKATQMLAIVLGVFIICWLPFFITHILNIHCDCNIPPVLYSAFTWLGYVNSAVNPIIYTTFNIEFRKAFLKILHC
Experimental: as §5, §6

hERG channel = hERG channel (Homo sapiens (Human), UniProt Q12809); assay: Test 5-2: activity for inhibiting hERG channel (whole-cell patch clamp, Qube); type: cell-based; conditions: hERG-CHO cell, auto patch clamp, read-out: hERG inhibition IC50
Sequence of hERG channel (Q12809 whole entry): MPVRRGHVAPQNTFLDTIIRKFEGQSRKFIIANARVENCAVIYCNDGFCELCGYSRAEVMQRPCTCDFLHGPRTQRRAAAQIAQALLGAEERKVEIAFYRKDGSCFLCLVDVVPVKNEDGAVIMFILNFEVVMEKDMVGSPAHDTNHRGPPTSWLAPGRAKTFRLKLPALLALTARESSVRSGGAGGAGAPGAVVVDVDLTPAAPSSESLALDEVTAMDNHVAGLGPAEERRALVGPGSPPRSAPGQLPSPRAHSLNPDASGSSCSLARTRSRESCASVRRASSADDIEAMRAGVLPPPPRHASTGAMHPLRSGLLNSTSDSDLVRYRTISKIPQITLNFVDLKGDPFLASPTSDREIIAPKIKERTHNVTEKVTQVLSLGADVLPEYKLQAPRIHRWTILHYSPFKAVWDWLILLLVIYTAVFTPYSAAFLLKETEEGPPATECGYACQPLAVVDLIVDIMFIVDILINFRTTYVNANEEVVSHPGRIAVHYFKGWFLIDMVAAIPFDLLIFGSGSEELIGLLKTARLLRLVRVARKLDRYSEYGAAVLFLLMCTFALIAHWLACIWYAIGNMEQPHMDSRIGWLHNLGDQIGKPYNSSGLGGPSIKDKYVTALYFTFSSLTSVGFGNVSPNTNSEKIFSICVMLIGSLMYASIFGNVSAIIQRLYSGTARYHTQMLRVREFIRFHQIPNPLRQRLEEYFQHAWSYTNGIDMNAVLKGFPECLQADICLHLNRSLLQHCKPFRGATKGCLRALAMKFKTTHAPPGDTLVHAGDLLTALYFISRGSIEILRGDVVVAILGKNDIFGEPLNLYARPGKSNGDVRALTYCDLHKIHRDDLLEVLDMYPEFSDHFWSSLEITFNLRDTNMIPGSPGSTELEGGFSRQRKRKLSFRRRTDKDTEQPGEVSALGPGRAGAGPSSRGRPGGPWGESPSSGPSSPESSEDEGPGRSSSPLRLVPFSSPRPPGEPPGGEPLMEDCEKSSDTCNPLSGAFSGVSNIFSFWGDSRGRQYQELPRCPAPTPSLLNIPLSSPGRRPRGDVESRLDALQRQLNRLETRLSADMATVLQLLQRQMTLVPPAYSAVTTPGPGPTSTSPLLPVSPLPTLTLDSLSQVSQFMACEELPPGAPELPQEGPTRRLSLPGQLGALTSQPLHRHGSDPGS
Experimental: Test 5-2: Evaluation of Activity for Inhibiting hERG Channel
The activity of the present compound for inhibiting hERG channel was measured by whole-cell patch clamp method with auto patch clamp system, using CHO cell wherein hERG channel involved in human rapidly activating delayed rectifier potassium current (IKr) was forcibly expressed.
hERG-CHO cell purchased from ChanTest was incubated at 37° C. in a CO2 incubator, and the cell was exfoliated from the flask with trypsin to prepare a cell suspension, shortly before the hERG current measurement.
Extracellular fluid: 2 mmol/L CaCl2, 1 mmol/L MgCl2, 10 mmol/L HEPES, 4 mmol/L KCl, 145 mmol/L NaCl, 10 mmol/L glucose
Intracellular fluid: 10 mmol/L HEPES, 10 mmol/L EGTA, 20 mmol/L KCl, 130 mmol/L KF […]
The cell suspension, the extracellular fluid, the intracellular fluid, and the measurement plate were set in an auto patch clamp system, and the hERG current was measured by whole-cell patch clamp method. […] The test was carried out applying increscently 4 concentrations of each test compound, and the average of the peak tail currents that were obtained by the last 3 stimulations in each applied concentration was made to be the evaluated data. By using the current inhibition rate for the pre-applied current at each concentration of each test compound, IC50 value was calculated by Hill equation with the software.

[5] = Test 3-2: metabolic stability test of human liver microsome; type: in vitro ADME; conditions: human liver microsome 0.5 or 1.0 mg/mL, test compound 0.1 μmol/L, 37° C., 30 minutes
Experimental: Test 3-2: Metabolic Stability Test of Human Liver Microsome
as §1, with “In order to evaluate the metabolic stability of human liver microsomes more precisely, the stability” for “The stability”, “evaluated with a suitable concentration of human liver microsome,” for “evaluated”, “microsome: 0.5 or 1.0” for “microsome: 0.1”
as §2

Wistar male rat = assay: Test 9: microdialysis test (intracerebral monoamine release); type: in vivo; conditions: in the combination administration with sertraline or in single administration
Experimental: Test 9: Microdialysis Test
The effect of the present compound for the release amount of intracerebral monoamine was evaluated in a manner mentioned below.
8-Week-old Wistar male rat was fixed on a brain stereotaxic apparatus under anesthesia. The scalp was incised, the subcutaneous tissue was removed, the position of the bregma was measured, and the installation position of a guide cannula was calculated (the position of the orbitofrontal cortex which defined according to the brain stereotaxic coordinates of Paxinos & Watson (2.0 mm right, 4.2 mm anterior from bregma)). The skull was drilled with a dental drill at the installation position of the guide cannula, and an anchor screw was set about 1 cm posterior to the hole. The guide cannula was set and fixed with a dental cement, and then the scalp was sutured. The animal was released from the brain stereotaxic apparatus, and was moved back to the breeding cage. In the event of the test, the rat was put in an acrylic observable cage, and a dialysis probe was inserted along the guide cannula to connect to a free-moving tube. With an infusion pump, Ringer solution was perfused at 2 μL/min, and the dialysis solution was recovered at 20-minute intervals. […] The recovered dialysis solutions were analyzed with a HPLC-ECD system to determine the contents of norepinephrine (NE), dopamine (DA), and serotonin (5-HT).

human D4 receptor [6] = biological target: T2, human D4 receptor; assay: Test 2: binding activity to human D4 receptor ([3H] dopamine); conditions: CHO cell membrane fraction, read-out: D4 binding affinity (Ki value)
Experimental: as §5, §6

[7] = 100% = 10 μmol/L endogenous ligand
[8] = CHO-K1, 100% = 10 μmol/L endogenous ligand

SMILES | Metabolic stability of human liver microsome [1] | other results
Cc1cccc(C2=CCN(CCNC(=O)C3CCOCC3)CC2)n1 [Example 29, N-[2-(6-Methyl-3′,6′-dihydro[2,4′-bipyridin]-1′(2′H)-yl)ethyl]-tetrahydro-2H-pyran-4-carboxamide] | <0.05 mL/min/mg protein | –
COCC(C)(C)C(=O)NCCN1CCC(c2cccc(C(F)(F)F)n2)CC1 [Example 6] | <0.01 mL/min/mg protein | –
O=C(NCCN1CC=C(c2cccc(C(F)(F)F)n2)CC1)C1CCCOC1 (stereo not shown) [Example 16, N-{2-[6-(Trifluoromethyl)-3′,6′-dihydro[2,4′-bipyridin]-1′(2′H)-yl]ethyl}-tetrahydro-2H-pyran-3-carboxamide] | <0.05 mL/min/mg protein | –
Cc1cccc(C2=CCN(CCNC(=O)C3CCC(F)(F)CC3)CC2)n1 [Example 14] | 0.084 mL/min/mg protein | –
COCC(C)(C)C(=O)NCCN1CC=C(c2cccc(C(F)(F)F)n2)CC1 [Example 18] | <0.05 mL/min/mg protein | –
O=C(NCCN1CCC(c2cccc(C(F)(F)F)n2)CC1)C1CCOCC1 [Example 11, N-(2-{4-[6-(Trifluoromethyl)pyridin-2-yl]piperidin-1-yl}ethyl)-tetrahydro-2H-pyran-4-carboxamide] | – | Metabolic stability of human liver microsome [5]: 0.0075 mL/min/mg protein; effect on serotonin content (Wistar male rat): did not decrease the serotonin content
Cc1cccc(C2CCN(CCNC(=O)C3CCCCO3)CC2)n1 (stereo not shown) [Example 20] | <0.05 mL/min/mg protein | Emax (human 5-HT1A receptor [2]; [8]): 40%; EC50 (human 5-HT1A receptor [2]): 0.057 µM; Emax (human D4 receptor [3]; [8]): 60%; EC50 (human D4 receptor [3]): 0.015 µM; Ki (human 5-HT1A receptor [4]): 0.0068 µM; Ki (human D4 receptor [6]): 0.092 µM; Ki (human D2 receptor): > 10 µM; IC50 (hERG channel): > 10 µM
O=C(NCCN1CCC(c2cccc(C(F)(F)F)n2)CC1)C1CCCOC1 (stereo not shown) [Example 2] | 0.069 mL/min/mg protein | –
CC(C)(C)C(=O)NCCN1CC=C(c2cccc(C(F)(F)F)n2)CC1 [Example 31, 2,2-Dimethyl-N-{2-[6-(trifluoromethyl)-3′,6′-dihydro[2,4′-bipyridin]-1′(2′H)-yl]ethyl}propanamide] | <0.05 mL/min/mg protein | –
COCC(C)(C)C(=O)NCCN1CCC(c2cccc(C)n2)CC1 [Example 5] | <0.01 mL/min/mg protein | –
Cc1cccc(C2=CCN(CCNC(=O)[C@H]3C[C@@H]4CC[C@H]3O4)CC2)n1 [Example 13] | <0.05 mL/min/mg protein | –

Now from value to compound, other results behind:

Metabolic stability of human liver microsome [1] | SMILES | other results
<0.05 mL/min/mg protein | CN(C)c1cccc(C2CCN(CCNC(=O)C3CCOCC3)CC2)n1 [Example 38, N-(2-{4-[6-(Dimethylamino)pyridin-2-yl]piperidin-1-yl}ethyl)-tetrahydro-2H-pyran-4-carboxamide] | –
<0.05 mL/min/mg protein | Cc1cccc(C2CCN(CCNC(=O)C3CCCOC3)CC2)n1 (stereo not shown) [Example 15] | –
<0.05 mL/min/mg protein | O=C(NCCN1CCC(c2cccc(C(F)(F)F)n2)CC1)C1CCOC1 (stereo not shown) [Example 25] | 5-HT1A agonistic activity Emax (human 5-HT1A receptor [2]; [7]): 46%; EC50 (human 5-HT1A receptor [2]): 0.067 µM; D4 agonistic activity Emax (human D4 receptor [3]; [7]): 49%; EC50 (human D4 receptor [3]): 0.03 µM; Ki (human 5-HT1A receptor [4]): 0.02 µM; Ki (human D2 receptor): 3.33 µM; IC50 (hERG channel): > 10 µM
<0.01 mL/min/mg protein | Cc1cccc(C2CCN(CCNC(=O)C3CC4CCC3O4)CC2)n1 (stereo not shown) [Example 3] | –
0.017 mL/min/mg protein | Cc1cccc(C2CCN(CCNC(=O)C3CCOCC3)CC2)n1 [Example 8, N-{2-[4-(6-Methylpyridin-2-yl)piperidin-1-yl]ethyl}-tetrahydro-2H-pyran-4-carboxamide] | Metabolic stability of human liver microsome [5]: 0.023 mL/min/mg protein
<0.05 mL/min/mg protein | O=C(NCCN1CCC(c2cccc(C(F)(F)F)n2)CC1)[C@H]1C[C@@H]2CC[C@H]1O2 [Example 21] | –
0.073 mL/min/mg protein | O=C(NCCN1CCC(c2cccc(C(F)(F)F)n2)CC1)C1CCC(F)(F)CC1 [Example 1, 4,4-Difluoro-N-(2-{4-[6-(trifluoromethyl)pyridin-2-yl]piperidin-1-yl}ethyl)cyclohexane-carboxamide] | Metabolic stability of human liver microsome [5]: 0.031 mL/min/mg protein
<0.05 mL/min/mg protein | O=C(NCCN1CCC(c2cccc(C(F)F)n2)CC1)C1CCOCC1 [Example 34] | –
<0.01 mL/min/mg protein | Cc1cccc(C2CCN(CCNC(=O)C3CCC(F)(F)CC3)CC2)n1 [Example 4] | –
<0.05 mL/min/mg protein | COc1cccc(C2CCN(CCNC(=O)C3CCOCC3)CC2)n1 [Example 33] | –
0.025 mL/min/mg protein | CC(C)(C)C(=O)NCCN1CCC(c2cccc(C(F)(F)F)n2)CC1 [Example 9, 2,2-dimethyl-N-(2-{4-[6-(trifluoromethyl)pyridin-2-yl]piperidin-1-yl}ethyl)propanamide] | Metabolic stability of human liver microsome [5]: 0.016 mL/min/mg protein
0.015 mL/min/mg protein | Cc1cccc(C2CCN(CCNC(=O)C(C)(C)C)CC2)n1 [Example 10] | –
<0.05 mL/min/mg protein | O=C(NCCN1CCC(c2cccc(OC(F)(F)F)n2)CC1)C1CCOCC1 [Example 28] | –
